The values below come from US7069876B2, “Methods for raising pre-adult anadromous fish” (MariCal, Inc., priority 2000, dated 2006).

The assay concerns shark kidney calcium receptor (SKCaR). Description: FURA-2 ratio imaging fluorescence assay in HEK cells expressing SKCaR. The assay is classed as cell-based, dogfish (Squalus acanthias). The conditions noted are these: 10 mM amino acid or AA Mixture; extracellular Ca2+ 0.5–20 mM (FIG. 52). An excerpt: Full length recombinant dogfish (Squalus acanthias) shark kidney calcium receptor ([…] NO.: 17) was expressed in human embryonic kidney […] ligated into the mammalian expression vector […] and transfected into HEK cells using standard techniques. The presence of SKCaR protein in transfected cells was verified by western blotting. Activation of SKCaR and its ability to respond to individual amino acids or mixtures thereof was quantified using a well characterized FURA-2 ratio imaging fluorescence assay where increases in intracellular Ca^2+ produced by SKCaR activation are detected and expressed as % normalized intracellular calcium response to receptor activation. Bai, M., S. et al., J. Biol. Chem., 32:19537-19545 (1996); Conigrave, A, et al., Proc. Nat. Acad. Sci. 97:4814-4819 (2000). […] Baseline extracellular Ca^2+ concentration was 0.5 mM. Aliquots of Ca^2+ were added to produce final extracellular concentrations of 2.5 mM, 5 mM, 7.5 mM, 10 mM and 20 mM Ca^2+ with changes in the fluorescence recorded.

Regarding `CC[C@H](C)[C@H](N)C(=O)O` [Ile, L-Isoleucine], the “effect on SKCaR's response to extracellular Ca2+” value is listed as “increase SKCaR's response to a given Ca^2+ concentration”. Regarding `N[C@@H](Cc1ccccc1)C(=O)O` [Phe, Phenylalanine], the “effect on SKCaR's response to extracellular Ca2+” value is “increase SKCaR's response to a given Ca^2+ concentration”.
